Patent US20170027949A1, “ASSOCIATION BETWEEN 8-CYCLOPROPYL-3-[2-(3-FLUOROPHENYL)ETHYL]-7,8-DIHYDRO-3H-[1,3]OXAZINO[6,5-g][1,2,3]BENZOTRIAZINE-4,9-DIONE AND AN ACETYLCHOLINESTERASE INHIBITOR, AND PHARMACEUTICAL COMPOSITIONS CONTAINING IT” (priority 2014, published 2017)

How the values were obtained:
3-month-old C57BL/6 mice = assay: Excitatory post-synaptic potentials (EPSP) induced by electrical stimulation in alert mice (perforant pathway / dentate gyrus of the hippocampus); assay type: in vivo; details: single dose p.o.: Compound S 3 mg/kg, rivastigmine 0.03 mg/kg, alone or in association
Text: Studying EPSPs induced by electrical stimulation in alert mice makes it possible to study physiologically an electrophysiological phenomenon which is the basis of neuronal activity and connected to the processes of memorisation and learning.
3-month-old C57BL/6 mice are anaesthetised with 0.8-3% halothane delivered by means of a mask. Once anaesthetised, stimulation and recording electrodes are inserted, respectively, in the perforant pathway and the dentate gyrus of the hippocampus of the animals. Following implantation of the electrodes, the mice are kept in cages for from 5 to 7 days with free access to food and water in order to allow complete recovery. Each implanted animal is alone in a cage until the end of the experiment.
After recovery, a stable baseline of evoked responses is induced using paired pulses (pulse duration 100 μs, negative-positive) administered at 3 pulses/minute to the stimulation electrode situated in the perforant pathway. The intervals between pulses are fixed at 40 ms (Gruart et al., J. Neurosci. 2006, 24, 1077-1087). The field EPSPs are monitored until a stable baseline is obtained (for 30 minutes). The products or the carrier are then administered, and the evoked field potentials are recorded. […] The evoked potentials are then recorded for approximately 2.5 hours after the last administration of compound or carrier.

[1] = tested on: C57BL/6 mice having an average age of 14-15 months; assay: Contextual serial discrimination test (model of episodic memory); assay type: in vivo; details: for percentage of correct responses: chronic treatment for 9 days, middle-aged mice, carrier 26.4%
Text: The effects of 8-cyclopropyl-3-[2-(3-fluorophenyl)ethyl]-7,8-dihydro-3H-[1,3]oxazino-[6,5-g][1,2,3]benzotriazine-4,9-dione and of donepezil (the latter used in the form of a hydrochloride), administered on their own or in combination, were studied using a contextual serial discrimination test in C57BL/6 mice having an average age of 14-15 months (n=12 per group) (Célérier et al., Learn Mem. 2004, 11(2), 196-204; Tronche et al., Behav. Brain Res. 2010, 215(2), 255-260).
The mice, placed in a high-sided box, learn two types of consecutive spatial discriminations (D1: white floor then D2: black floor) on a floor having four holes, in which only one of the holes is baited, opposite holes being baited in D1 and D2. Each discrimination is performed on a specific floor (white or black), which constitutes the internal context specific to each discrimination. Twenty-four hours after the learning step, the mice are returned to the white contextual floor and the following parameters are measured: • the percentage of correct responses (i.e. % of head dips in the hole that had been baited during the acquisition exercise on the white floor), • the percentage of interfering responses (i.e. % of head dips in the hole that had been baited during the acquisition exercise on the black floor, the last context presented to the mice), • and the percentage of errors (i.e. % of head dips in the two holes that had not been baited during the acquisition, either on the white floor or on the black floor) (see FIG. 1).

C57BL/6 mice = assay: Irwin's primary observation test; details: on its own
Procedure: The effects in terms of safety of 8-cyclopropyl-3-[2-(3-fluorophenyl)ethyl]-7,8-dihydro-3H-[1,3]oxazino[6,5-g][1,2,3]benzotriazine-4,9-dione and of donepezil (the latter in the form of a hydrochloride), administered on their own or in association, were studied using Irwin's primary observation test in C57BL/6 mice (n=4 individuals per group). Behavioural changes, physiological and neurotoxic symptoms, rectal temperature and also pupil diameter were recorded using a standardised observation grid derived from that of Irwin.

Row | Compound | amplitudes of the field EPSPs relative to the carrier group (3-month-old C57BL/6 mice) | percentage of correct responses ([1]; 0.1 mg/kg per os) | percentage of correct responses ([1]; 0.3 mg/kg per os) | increase in level of correct responses relative to the carrier ([1]; doses of 0.1 and 0.3 mg/kg per os, 9 days, significant) | change according to the standardised observation grid (C57BL/6 mice; 0.3 and 1 mg/kg of base per os, acute) | change according to the standardised observation grid (C57BL/6 mice; 3 and 10 mg/kg of base per os) | change in percentage of correct responses relative to the carrier ([1]; 0.1 mg/kg of base per os, 9 days)
1 | O=C1c2cc3nnn(CCc4cccc(F)c4)c(=O)c3cc2OCN1C1CC1 [Compound S, 8-cyclopropyl-3-[2-(3-fluorophenyl)ethyl]-7,8-dihydro-3H-[1,3]oxazino[6,5-g][1,2,3]benzotriazine-4,9-dione] | does not induce a significant modification | 43.7% | 48% | more than 40% |  |  | 
2 | COc1cc2c(cc1OC)C(=O)C(CC1CCN(Cc3ccccc3)CC1)C2 (stereo not drawn) [donepezil] |  | 35.5% |  |  | do not induce any change | induces shaking, slight to moderate sedation, a loss of muscle tone and a decrease in reactivity to touch | slight non-significant increase
3 | CCN(C)C(=O)Oc1cccc([C@H](C)N(C)C)c1 [rivastigmine] | does not induce a significant modification |  |  |  |  |  | 
